From paper PMC11589570, “Critical assessment of LC3/GABARAP ligands used for degrader development and ligandability of LC3/GABARAP binding pockets” (Nature Communications, 2024)
Values joined by “and” are separate entries in the source; they are usually repeats but may differ in a detail not shown here. Equal entries are not always repeated.

Columns and labels:
[1] = target: LC3C (Homo sapiens, UniProt Q9BXW4); experiment: FP assay with Cy5-labelled p62 LIR tracer (protein titration and tracer displacement); format: binding; conditions: replicates, listed as TH152
Chain of LC3C (Q9BXW4 1-126): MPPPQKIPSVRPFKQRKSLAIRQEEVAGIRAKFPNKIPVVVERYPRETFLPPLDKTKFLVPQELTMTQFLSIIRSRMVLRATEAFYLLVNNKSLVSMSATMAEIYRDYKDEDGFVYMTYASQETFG

[2] = target: GABARAP (Homo sapiens, UniProt O95166); experiment: as above; format: binding; conditions: replicates, listed as TH152
Chain of GABARAP (O95166 1-116): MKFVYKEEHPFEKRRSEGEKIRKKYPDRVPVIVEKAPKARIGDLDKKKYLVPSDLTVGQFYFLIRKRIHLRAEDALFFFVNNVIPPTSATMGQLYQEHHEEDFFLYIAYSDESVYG

[3] = target: GABARAPL1 (Homo sapiens, UniProt Q9H0R8); experiment: as above; format: binding; conditions: replicates, listed as TH152
Chain of GABARAPL1 (Q9H0R8 whole entry): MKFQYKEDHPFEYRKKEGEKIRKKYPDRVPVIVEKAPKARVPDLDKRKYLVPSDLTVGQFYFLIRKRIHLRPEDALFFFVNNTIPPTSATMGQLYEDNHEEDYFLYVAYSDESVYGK

[4] = target: LC3A (Homo sapiens, UniProt Q9H492); experiment: Isothermal titration calorimetry (ITC); format: binding; conditions: LC3A; read-out: KD (ITC)
Source text: To minimize nonspecific dilution heat effects, DMSO concentrations in the protein and compound samples were matched. […] For this protocol, the chamber was pre-equilibrated with the protein, and the test compounds were titrated while continuously measuring the rate of exothermic heat evolution. The heat of binding was integrated, corrected, and fitted to an independent single-binding site model based on the manufacturer’s instructions, from which thermodynamic parameters (ΔH and TΔS), equilibrium association and dissociation constants (KA and KD, respectively), and stoichiometry (n) were calculated using TA Instruments NanoAnalyze software.

[5] = target: GABARAPL2 (Homo sapiens, UniProt P60520); experiment: FP assay with Cy5-labelled p62 LIR tracer (protein titration and tracer displacement); conditions: replicates, listed as TH152
Chain of GABARAPL2 (P60520 whole entry): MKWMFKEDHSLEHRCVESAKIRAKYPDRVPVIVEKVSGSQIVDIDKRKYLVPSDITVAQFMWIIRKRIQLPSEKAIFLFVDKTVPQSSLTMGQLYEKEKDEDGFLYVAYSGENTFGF

CCCCCCC(Sc1nc(Cl)cc(Nc2nc(-c3ccc(C(=O)O)cc3)cs2)n1)C(=O)O (stereo not drawn) [compound 21]
FP assay result (normalised FP signal) ([1]; log10 concentration [M] -3.5): 19.6537 and 17.9691 and 15.5358 and 11.7922 | FP assay result (normalised FP signal) ([1]; log10 concentration [M] -4): 50.5381 and 45.8587 and 48.6664 and 46.0459 | FP assay result (normalised FP signal) ([1]; log10 concentration [M] -4.5): 71.5021 and 72.0636 and 76.3687 and 74.6841 | FP assay result (normalised FP signal) ([1]; log10 concentration [M] -5): 93.0276 and 94.7122 and 94.8994 and 95.6481 | FP assay result (normalised FP signal) ([1]; log10 concentration [M] -5.5): 93.7763 and 94.3379 and 97.5199 and 95.8353 | FP assay result (normalised FP signal) ([1]; log10 concentration [M] -6): 96.0225 and 101.076 and 101.638 and 98.4558 | FP assay result (normalised FP signal) ([1]; log10 concentration [M] -6.5): 90.0328 and 92.0917 and 90.5943 and 93.2148 | FP assay result (normalised FP signal) ([1]; log10 concentration [M] -7): 99.2045 and 96.9584 and 97.5199 and 97.8942 | FP assay result (normalised FP signal) ([1]; log10 concentration [M] -7.5): 99.9532 and 98.8301 and 99.3917 and 101.825 | FP assay result (normalised FP signal) ([1]; log10 concentration [M] -8): 96.2096 and 99.0173 and 101.263 and 99.2045 | FP assay result (normalised FP signal) ([1]; log10 concentration [M] -8.5): 94.3379 and 96.2096 and 95.0866 and 96.0225 | FP assay result (normalised FP signal) ([2]; log10 concentration [M] -3.5): 6.476 and 7.14 and 8.634 and 10.7929 | FP assay result (normalised FP signal) ([2]; log10 concentration [M] -4): 22.9141 and 19.9253 and 28.8917 and 24.7406 | FP assay result (normalised FP signal) ([2]; log10 concentration [M] -4.5): 50.1453 and 47.6546 and 52.4699 and 48.8169 | FP assay result (normalised FP signal) ([2]; log10 concentration [M] -5): 88.9996 and 85.5127 and 92.3205 and 91.9884 | FP assay result (normalised FP signal) ([2]; log10 concentration [M] -5.5): 94.6451 and 91.9884 and 100.623 and 97.7999 | FP assay result (normalised FP signal) ([2]; log10 concentration [M] -6): 98.298 and 99.6264 and 101.287 and 99.7924 | FP assay result (normalised FP signal) ([2]; log10 concentration [M] -6.5): 94.479 and 92.8186 and 96.6376 and 97.7999 | FP assay result (normalised FP signal) ([2]; log10 concentration [M] -7): 96.3055 and 97.7999 and 100.955 and 96.9697 | FP assay result (normalised FP signal) ([2]; log10 concentration [M] -7.5): 97.3018 (2×) and 101.453 and 101.785 | FP assay result (normalised FP signal) ([2]; log10 concentration [M] -8): 99.9585 and 97.966 and 101.619 and 100.457 | FP assay result (normalised FP signal) ([2]; log10 concentration [M] -8.5): 96.1395 and 97.7999 and 97.966 and 99.2943 | FP assay result (normalised FP signal) ([3]; log10 concentration [M] -3.5): 12.2578 and 12.5396 and 10.1444 and 7.186 | FP assay result (normalised FP signal) ([3]; log10 concentration [M] -4): 30.4333 and 31.4195 and 29.5879 and 26.0655 | FP assay result (normalised FP signal) ([3]; log10 concentration [M] -4.5): 65.2342 and 56.9215 and 57.9077 and 55.9352 | FP assay result (normalised FP signal) ([3]; log10 concentration [M] -5): 92.9905 and 91.2998 and 95.2448 and 93.4132 | FP assay result (normalised FP signal) ([3]; log10 concentration [M] -5.5): 96.2311 and 98.3445 and 98.9081 and 98.7672 | FP assay result (normalised FP signal) ([3]; log10 concentration [M] -6): 98.6263 and 98.7672 (2×) and 99.1899 | FP assay result (normalised FP signal) ([3]; log10 concentration [M] -6.5): 96.2311 and 93.5541 and 95.6675 and 93.2723 | FP assay result (normalised FP signal) ([3]; log10 concentration [M] -7): 99.049 and 98.3445 and 97.64 and 97.4991 | FP assay result (normalised FP signal) ([3]; log10 concentration [M] -7.5): 101.021 and 101.867 and 99.049 and 98.0627 | FP assay result (normalised FP signal) ([3]; log10 concentration [M] -8): 97.0764 and 96.0902 (2×) and 101.162 | FP assay result (normalised FP signal) ([3]; log10 concentration [M] -8.5): 95.6675 and 98.9081 and 96.9355 and 97.3582 | Kd [4]: 2000 nM | FP assay result (normalised FP signal) ([5]; log10 concentration [M] -3.5): 15.4589 and 21.9002 and 32.8502 and 25.1208 | FP assay result (normalised FP signal) ([5]; log10 concentration [M] -4): 44.4444 and 43.8003 and 53.7842 and 57.0048 | FP assay result (normalised FP signal) ([5]; log10 concentration [M] -4.5): 73.752 and 73.1079 and 75.0403 and 77.2947 | FP assay result (normalised FP signal) ([5]; log10 concentration [M] -5): 94.686 and 90.8213 and 95.0081 and 104.992 | FP assay result (normalised FP signal) ([5]; log10 concentration [M] -5.5): 97.2625 and 94.0419 and 105.958 and 102.093 | FP assay result (normalised FP signal) ([5]; log10 concentration [M] -6): 96.2963 and 93.0757 and 104.026 and 99.5169 | FP assay result (normalised FP signal) ([5]; log10 concentration [M] -6.5): 86.9565 and 89.8551 and 99.1948 and 93.0757 | FP assay result (normalised FP signal) ([5]; log10 concentration [M] -7): 90.4992 and 100.483 and 104.992 and 96.9404 | FP assay result (normalised FP signal) ([5]; log10 concentration [M] -7.5): 99.839 and 95.9742 and 100.161 and 104.026 | FP assay result (normalised FP signal) ([5]; log10 concentration [M] -8): 94.686 and 94.3639 and 101.127 and 98.5507 | FP assay result (normalised FP signal) ([5]; log10 concentration [M] -8.5): 91.4654 and 99.5169 and 96.2963 and 101.127
